Here are results for 16 compounds from patent US20250041429A1, “COMPOUND HAVING BTK PROTEIN DEGRADATION ACTIVITY, AND MEDICAL USES THEREOF” (UBIX THERAPEUTICS, INC., priority 2021, published 2025).

For the assay, the target named is T1, BTK protein (Homo sapiens, UniProt Q06187).
T1 construct: endogenous in cells; host or cells: TMD-8 cells
The experiment in a line: Measurement of BTK protein degradation ability in TMD-8 cells (Western blotting). The class given is cell-based. To be noted: harvested after 24 hours; for BTK degradation (%) 1 nM: compound 1 nM; for BTK degradation (%) 10 nM: compound 10 nM; for BTK degradation (%) 100 nM: compound 100 nM. The gist of the method:
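TMD-8 cells (1×10^6/mL) were treated for 24 h with compound at 0.1, 1, 10 μM or 0.0001–0.1 μM, with DMSO as vehicle control. RIPA lysates were normalized by BCA assay. BTK was detected by Western blot with anti-BTK, using GAPDH or β-actin as loading controls, and imaged on LI-COR Odyssey.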
A general note: Immunoblotting shows a protein as a band on a membrane.

SMILES strings stand for the structures.

T1 sequence (Q06187 whole entry): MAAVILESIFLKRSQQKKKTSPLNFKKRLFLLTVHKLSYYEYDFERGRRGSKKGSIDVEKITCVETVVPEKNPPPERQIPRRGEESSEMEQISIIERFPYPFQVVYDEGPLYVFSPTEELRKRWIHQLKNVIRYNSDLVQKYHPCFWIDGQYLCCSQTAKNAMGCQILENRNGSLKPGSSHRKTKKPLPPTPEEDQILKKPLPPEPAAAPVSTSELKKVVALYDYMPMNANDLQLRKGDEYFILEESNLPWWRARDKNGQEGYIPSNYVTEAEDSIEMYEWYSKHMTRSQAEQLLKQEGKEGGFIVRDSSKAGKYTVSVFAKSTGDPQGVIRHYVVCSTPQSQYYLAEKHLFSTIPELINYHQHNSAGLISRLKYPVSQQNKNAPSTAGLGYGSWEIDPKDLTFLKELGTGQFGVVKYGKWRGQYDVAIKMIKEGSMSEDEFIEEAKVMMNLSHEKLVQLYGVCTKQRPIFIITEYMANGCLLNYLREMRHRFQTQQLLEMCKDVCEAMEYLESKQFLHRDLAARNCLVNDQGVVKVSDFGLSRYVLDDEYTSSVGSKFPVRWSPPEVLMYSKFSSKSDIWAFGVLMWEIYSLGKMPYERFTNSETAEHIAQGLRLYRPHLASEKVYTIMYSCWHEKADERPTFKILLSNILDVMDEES

As to `Cc1cc(-c2ccnc(Nc3ccc(N4CCN(CC5CCN(C(=O)c6cccc(NC7CCC(=O)NC7=O)c6)CC5)CC4)cc3)n2)ccc1CNC(=O)N1CC(OC(C)C)C1` (stereo not drawn) [Example 87, N-(4-(2-((4-(4-((1-(3-((2,6-dioxopiperidin-3-yl)amino)benzoyl)piperidin-4-yl)methyl)piperazin-1-yl)phenyl)amino)pyrimidin-4-yl)-2-methylbenzyl)-3-isopropoxyazetidine-1-carboxamide], the “BTK degradation (%) 1 nM” value came out at 36.5%, the “BTK degradation (%) 10 nM” value is recorded as 94.5% and the “BTK degradation (%) 100 nM” value is on record as 98.5%.

As to `Cc1cc(-c2ccnc(Nc3ccc(N4CCN(CC5CN(C(=O)c6cccc(NC7CCC(=O)NC7=O)c6)C5)CC4)cc3)n2)ccc1CNC(=O)N1CC(OC(C)C)C1` (stereo not drawn) [Example 88, N-(4-(2-((4-(4-((1-(3-((2,6-dioxopiperidin-3-yl)amino)benzoyl)azetidin-3-yl)methyl)piperazin-1-yl)phenyl)amino)pyrimidin-4-yl)-2-methylbenzyl)-3-isopropoxyazetidine-1-carboxamide], the “BTK degradation (%) 1 nM” value was 35.5%, the “BTK degradation (%) 10 nM” value is reported as 94.5% and the “BTK degradation (%) 100 nM” value was 98.5%.

In the case of `Cc1cc(-c2ccnc(Nc3ccc(N4CCN(CC5CCN(C(=O)c6cccc(N7CCC(=O)NC7=O)c6)CC5)CC4)cc3)n2)ccc1CNC(=O)N1CC(OC(C)C)C1` [Example 89, N-(4-(2-((4-(4-((1-(3-(2,4-dioxotetrahydropyrimidin-1 (2H)-yl)benzoyl)piperidin-4-yl)methyl)piperazin-1-yl)phenyl)amino)pyrimidin-4-yl)-2-methylbenzyl)-3-isopropoxyazetidine-1-carboxamide], the “BTK degradation (%) 1 nM” value is given as −0.5%, the “BTK degradation (%) 10 nM” value came to 33% and the “BTK degradation (%) 100 nM” value amounted to 87%.

For `COc1ccc(C(=O)N2CCC(CN3CCN(c4ccc(Nc5nccc(-c6cc(F)cc(NC(=O)N7CC(OC(C)C)C7)c6C)n5)cc4)CC3)CC2)cc1N1CCC(=O)NC1=O` [Example 90, N-(3-(2-((4-(4-((1-(3-(2,4-dioxotetrahydropyrimidin-1 (2H)-yl)-4-methoxybenzoyl)piperidin-4-yl)methyl)piperazin-1-yl)phenyl)amino)pyrimidin-4-yl)-5-fluoro-2-methylphenyl)-3-isopropoxyazetidine-1-carboxamide], the “BTK degradation (%) 1 nM” value came out at 4%, the “BTK degradation (%) 10 nM” value turned out to be 10% and the “BTK degradation (%) 100 nM” value was found to be 37.5%.

Regarding `Cc1cc(-c2ccnc(Nc3cnn(C4CCN(CC5CCN(C(=O)c6cccc(NC7CCC(=O)NC7=O)c6)CC5)CC4)c3)n2)ccc1CNC(=O)N1CC(OC(C)C)C1` (stereo not drawn) [Example 91, N-(4-(2-((1-(1-((1-(3-((2,6-dioxopiperidin-3-yl)amino)benzoyl)piperidin-4-yl)methyl)piperidin-4-yl)-1H-pyrazol-4-yl)amino)pyrimidin-4-yl)-2-methylbenzyl)-3-isopropoxyazetidine-1-carboxamide], the “BTK degradation (%) 1 nM” value worked out at 4.5%, the “BTK degradation (%) 10 nM” value is reported as 68.5% and the “BTK degradation (%) 100 nM” value came out at 95.0%.

For `Cc1cc(-c2ccnc(Nc3cnn(C4CCN(CC5CN(C(=O)c6cccc(NC7CCC(=O)NC7=O)c6)C5)CC4)c3)n2)ccc1CNC(=O)N1CC(OC(C)C)C1` (stereo not drawn) [Example 92, N-(4-(2-((1-(1-((1-(3-((2,6-dioxopiperidin-3-yl)amino)benzoyl)azetidin-3-yl)methyl)piperidin-4-yl)-1H-pyrazol-4-yl)amino)pyrimidin-4-yl)-2-methylbenzyl)-3-isopropoxyazetidine-1-carboxamide], the “BTK degradation (%) 1 nM” value came out at 7.0%, the “BTK degradation (%) 10 nM” value is 33.5% and the “BTK degradation (%) 100 nM” value was determined as 89.0%.

For the compound `Cc1cc(-c2ccnc(Nc3ccc(N4CCN(CC5CCN(C(=O)c6cccc(NC7CCC(=O)NC7=O)c6)CC5)CC4)cc3)n2)ccc1CNC(=O)c1cnn(C(C)C)c1` (stereo not drawn) [Example 93, N-(4-(2-((4-(4-((1-(3-((2,6-dioxopiperidin-3-yl)amino)benzoyl)piperidin-4-yl)methyl)piperazin-1-yl)phenyl)amino)pyrimidin-4-yl)-2-methylbenzyl)-1-isopropyl-1H-pyrazole-4-carboxamide], the “BTK degradation (%) 1 nM” value is reported as 62.0%, the “BTK degradation (%) 10 nM” value was found to be 94.5% and the “BTK degradation (%) 100 nM” value was determined as 98.5%.

As for `Cc1cc(-c2ccnc(Nc3ccc(N4CCN(CC5CN(C(=O)c6cccc(NC7CCC(=O)NC7=O)c6)C5)CC4)cc3)n2)ccc1CNC(=O)c1cnn(C(C)C)c1` (stereo not drawn) [Example 94, N-(4-(2-((4-(4-((1-(3-((2,6-dioxopiperidin-3-yl)amino)benzoyl)azetidin-3-yl)methyl)piperazin-1-yl)phenyl)amino)pyrimidin-4-yl)-2-methylbenzyl)-1-isopropyl-1H-pyrazole-4-carboxamide], the “BTK degradation (%) 1 nM” value is recorded as 59.5%, the “BTK degradation (%) 10 nM” value is given as 93.5% and the “BTK degradation (%) 100 nM” value was 98.5%.

As for `Cc1cc(-c2ccnc(Nc3ccc(N4CCN(CC5CCN(C(=O)c6cccc(NC7CCC(=O)NC7=O)c6)CC5)CC4)cc3)n2)ccc1CNC(=O)c1cnn(C(C)(C)C)c1` (stereo not drawn) [Example 95, 1-(tert-butyl)-N-(4-(2-((4-(4-((1-(3-((2,6-dioxopiperidin-3-yl)amino)benzoyl)piperidin-4-yl)methyl)piperazin-1-yl)phenyl)amino)pyrimidin-4-yl)-2-methylbenzyl)-1H-pyrazole-4-carboxamide], the “BTK degradation (%) 1 nM” value is 67.5%, the “BTK degradation (%) 10 nM” value worked out at 94.5% and the “BTK degradation (%) 100 nM” value was 98.0%.

Regarding `Cc1cc(-c2ccnc(Nc3ccc(N4CCN(CC5CN(C(=O)c6cccc(NC7CCC(=O)NC7=O)c6)C5)CC4)cc3)n2)ccc1CNC(=O)c1cnn(C(C)(C)C)c1` (stereo not drawn) [Example 96, 1-(tert-butyl)-N-(4-(2-((4-(4-((1-(3-((2,6-dioxopiperidin-3-yl)amino)benzoyl)azetidin-3-yl)methyl)piperazin-1-yl)phenyl)amino)pyrimidin-4-yl)-2-methylbenzyl)-1H-pyrazole-4-carboxamide], the “BTK degradation (%) 1 nM” value came to 70.0%, the “BTK degradation (%) 10 nM” value was 95.5% and the “BTK degradation (%) 100 nM” value is given as 98.0%.

Turning to `Cc1cc(-c2ccnc(Nc3ccc(N4CCN(CC5CCN(C(=O)c6cccc(NC7CCC(=O)NC7=O)c6)CC5)CC4)cc3)n2)ccc1CNC(=O)c1cn(C(C)(C)C)nn1` (stereo not drawn) [Example 97], the “BTK degradation (%) 1 nM” value amounted to 67.5%, the “BTK degradation (%) 10 nM” value came out at 94.0% and the “BTK degradation (%) 100 nM” value turned out to be 98.5%.

As to `Cc1cc(-c2ccnc(Nc3ccc(N4CCN(CC5CN(C(=O)c6cccc(NC7CCC(=O)NC7=O)c6)C5)CC4)cc3)n2)ccc1CNC(=O)c1cn(C(C)(C)C)nn1` (stereo not drawn) [Example 98, 1-(tert-butyl)-N-(4-(2-((4-(4-((1-(3-((2,6-dioxopiperidin-3-yl)amino)benzoyl)azetidin-3-yl)methyl)piperazin-1-yl)phenyl)amino)pyrimidin-4-yl)-2-methylbenzyl)-1H-1,2,3-triazole-4-carboxamide], the “BTK degradation (%) 1 nM” value is listed as 71.0%, the “BTK degradation (%) 10 nM” value worked out at 95.5% and the “BTK degradation (%) 100 nM” value is recorded as 98.5%.

For `Cc1cc(-c2ccnc(Nc3ccc(C4CCN(CC5CCN(C(=O)c6cccc(NC7CCC(=O)NC7=O)c6)CC5)CC4)cc3)n2)ccc1CNC(=O)N1CC(OC(C)C)C1` (stereo not drawn) [Example 99, N-(4-(2-((4-(1-((1-(3-((2,6-dioxopiperidin-3-yl)amino)benzoyl)piperidin-4-yl)methyl)piperidin-4-yl)phenyl)amino)pyrimidin-4-yl)-2-methylbenzyl)-3-isopropoxyazetidine-1-carboxamide], the “BTK degradation (%) 1 nM” value is 46.5%, the “BTK degradation (%) 10 nM” value was determined as 92.0% and the “BTK degradation (%) 100 nM” value is reported as 98.5%.

For `Cc1cc(-c2ccnc(Nc3ccc(C4CCN(CC5CN(C(=O)c6cccc(NC7CCC(=O)NC7=O)c6)C5)CC4)cc3)n2)ccc1CNC(=O)N1CC(OC(C)C)C1` (stereo not drawn) [Example 100, N-(4-(2-((4-(1-((1-(3-((2,6-dioxopiperidin-3-yl)amino)benzoyl)azetidin-3-yl)methyl)piperidin-4-yl)phenyl)amino)pyrimidin-4-yl)-2-methylbenzyl)-3-isopropoxyazetidine-1-carboxamide], the “BTK degradation (%) 1 nM” value was found to be 40.5%, the “BTK degradation (%) 10 nM” value is reported as 91.0% and the “BTK degradation (%) 100 nM” value was found to be 98.0%.

As to `Cc1cc(-c2ccnc(Nc3ccc(C4CN(CC5CCN(C(=O)c6cccc(NC7CCC(=O)NC7=O)c6)CC5)C4)cc3)n2)ccc1CNC(=O)N1CC(OC(C)C)C1` (stereo not drawn) [Example 101, N-(4-(2-((4-(1-((1-(3-((2,6-dioxopiperidin-3-yl)amino)benzoyl)piperidin-4-yl)methyl)azetidin-3-yl)phenyl)amino)pyrimidin-4-yl)-2-methylbenzyl)-3-isopropoxyazetidine-1-carboxamide], the “BTK degradation (%) 1 nM” value worked out at 50.5%, the “BTK degradation (%) 10 nM” value was 98.0% and the “BTK degradation (%) 100 nM” value is 100.0%.

As for `Cc1cc(-c2ccnc(Nc3ccc(N4CCN(CC5CCN(C(=O)c6cccc(OC7CCC(=O)NC7=O)c6)CC5)CC4)cc3)n2)ccc1CNC(=O)N1CC(OC(C)C)C1` (stereo not drawn) [Example 102, N-(4-(2-((4-(4-((1-(3-((2,6-dioxopiperidin-3-yl)oxy)benzoyl)piperidin-4-yl)methyl)piperazin-1-yl)phenyl)amino)pyrimidin-4-yl)-2-methylbenzyl)-3-isopropoxyazetidine-1-carboxamide], the “BTK degradation (%) 1 nM” value worked out at 19.0%, the “BTK degradation (%) 10 nM” value was determined as 82.5% and the “BTK degradation (%) 100 nM” value is listed as 94.0%.
